Measurements reported in paper PMC5007552, “The hVps34‐SGK3 pathway alleviates sustained PI3K/Akt inhibition by stimulating mTORC1 and tumour growth” (The EMBO Journal, 2016).

Tests used:
[1] = system: NDRG1 phosphorylation in ZR-75-1 cells; experiment: Immunoblot of NDRG1 (Thr346) phosphorylation in breast cancer cells; assay type: cell-based, human; details: 1 μM, 1 h; ZR-75-1, CAMA-1 (and T47D for PI3K inhibitors)
Procedure: Cell lysates were subjected to immunoblot analysis with the indicated antibodies. • ZR‐75‐1 cells cultured in serum in the absence of Akt inhibitor were treated for 1 h with the indicated concentrations of VPS34‐IN1. […] One hour prior to lysis, the cells were incubated in the presence or absence of 1 μM VPS34‐IN1. SGK3 was immunoprecipitated from lysates and subjected to in vitro kinase assay by measuring phosphorylation of the Crosstide substrate peptide in the presence of 0.1 mM [γ‐^32P]ATP in a 30 min 30°C reaction (upper panel). Kinase reactions are presented as means ± SD for triplicate reaction. Immunoprecipitates (IP) and lysates were analysed by immunoblot with the indicated antibodies. […] SGK3 was immunoprecipitated from the lysates and subjected to in vitro kinase assay as in (C). Kinase reactions are presented as means ± SD for triplicate reaction. Immunoprecipitates (IP) and lysates (lower panel) were also subjected to immunoblot analysis with the indicated antibodies. • ZR‐75‐1 cells were cultured in the absence or presence of 1 μM MK‐2206 for 5 days. Cells were then treated in the absence or presence of 0.1 μM AZD8055 or 0.1 μM rapamycin for 1 h. SGK3 was immunoprecipitated and subjected to in vitro kinase assay as in (C). Kinase reactions are presented as means ± SD for triplicate reaction. The immunoprecipitates (IP) and lysates were analysed with the indicated antibodies.
One hour prior to lysis, the cells were incubated in the presence of absence of 0.3 μM SAR405. SGK3 was immunoprecipitated from lysates and subjected to in vitro kinase assay by measuring phosphorylation of the Crosstide substrate peptide in the presence of 0.1 mM [γ‐^32P]ATP in a 30 min 30°C reaction (upper panel). Kinase reactions are presented as means ± SD for triplicate reaction. Immunoprecipitates (IP) and lysates were also analysed by immunoblot with the indicated antibodies.
(§1) The result for each kinase is presented as a mean kinase activity of the reaction taken in triplicate relative to a control reaction where the inhibitors were omitted. […] SGK3 was immunoprecipitated from cell lysates and subjected to in vitro kinase assay by measuring phosphorylation of the Crosstide substrate peptide in the presence of 0.1 mM [γ‐^32P]ATP in a 30 min 30°C reaction (upper panel). Kinase reactions are presented as means ± SD for triplicate reaction.
HEK293 cells were purchased from the American Tissue Culture Collection (ATCC). Cells were cultured in RPMI or DMEM media supplemented with 10% (v/v) foetal bovine serum, 2 mM L‐glutamine, 100 U/ml penicillin and 0.1 mg/ml streptomycin. Inhibitor treatments were carried out as described in figure legends. During 5 days inhibitor treatments, the media was changed after 72‐h intervals. The cells were lysed in buffer containing 50 mM Tris–HCl (pH 7.5), 150 mM NaCl, 1 mM EDTA, 1 mM EGTA, 1 mM sodium orthovanadate, 10 mM sodium glycerophosphate, 10 mM sodium pyrophosphate, 0.27 M sucrose, 0.1% (v/v) 2‐mercaptoethanol, 1 mM benzamidine and 0.1 mM PMSF. Lysates were clarified by centrifugation at 16,000 g for 10 min at 4°C. Protein concentration was calculated using Bradford assay (Thermo Scientific). Immunoblotting and immunoprecipitation were performed using standard procedures. The signal was developed using ECL Western Blotting Detection Kit (Amersham) on Amersham Hyperfilm ECL film (Amersham).

[2] = molecular target: MLK3 (Homo sapiens, UniProt Q16584); experiment: IC50 on recombinant MLK3; assay type: biochemical; details: Fig 5B / Appendix Fig S1B, recombinant kinase, unit inferred
MLK3, sequence (Q16584 whole entry, species assumed): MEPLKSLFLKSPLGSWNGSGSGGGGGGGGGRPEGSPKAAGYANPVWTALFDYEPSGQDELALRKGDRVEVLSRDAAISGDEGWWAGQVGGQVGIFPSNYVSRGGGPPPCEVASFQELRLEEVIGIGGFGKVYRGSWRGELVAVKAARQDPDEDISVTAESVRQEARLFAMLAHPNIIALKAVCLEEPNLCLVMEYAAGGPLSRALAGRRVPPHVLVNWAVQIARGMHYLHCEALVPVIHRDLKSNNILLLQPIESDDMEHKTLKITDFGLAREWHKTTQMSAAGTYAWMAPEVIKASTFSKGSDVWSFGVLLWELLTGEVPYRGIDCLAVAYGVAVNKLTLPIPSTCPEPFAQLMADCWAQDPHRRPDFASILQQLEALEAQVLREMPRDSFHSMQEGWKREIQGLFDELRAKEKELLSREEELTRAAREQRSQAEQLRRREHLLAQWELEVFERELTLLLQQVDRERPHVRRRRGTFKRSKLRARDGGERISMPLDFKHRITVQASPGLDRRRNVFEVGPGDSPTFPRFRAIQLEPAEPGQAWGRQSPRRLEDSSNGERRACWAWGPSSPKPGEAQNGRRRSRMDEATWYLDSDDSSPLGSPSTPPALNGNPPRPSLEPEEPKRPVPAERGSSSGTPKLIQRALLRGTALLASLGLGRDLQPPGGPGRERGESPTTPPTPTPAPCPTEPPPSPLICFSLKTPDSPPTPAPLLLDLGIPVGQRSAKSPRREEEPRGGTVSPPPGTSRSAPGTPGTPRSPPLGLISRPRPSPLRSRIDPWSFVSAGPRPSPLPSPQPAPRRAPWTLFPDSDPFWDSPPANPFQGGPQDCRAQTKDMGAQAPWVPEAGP
Procedure: as §1
(§2) Appendix Figure S1. […] (A) Chemical struc tures of
(§3) Sano/f_i-14g, -14i and -14n compounds. (B) IC50 values of inhibitors on indicated recombinant k inases. […]

[3] = molecular target: T1, SGK3 (Homo sapiens, UniProt Q96BR1); experiment: IC50 on recombinant SGK3; assay type: biochemical; details: recombinant kinase
T1 sequence (Q96BR1 1-496): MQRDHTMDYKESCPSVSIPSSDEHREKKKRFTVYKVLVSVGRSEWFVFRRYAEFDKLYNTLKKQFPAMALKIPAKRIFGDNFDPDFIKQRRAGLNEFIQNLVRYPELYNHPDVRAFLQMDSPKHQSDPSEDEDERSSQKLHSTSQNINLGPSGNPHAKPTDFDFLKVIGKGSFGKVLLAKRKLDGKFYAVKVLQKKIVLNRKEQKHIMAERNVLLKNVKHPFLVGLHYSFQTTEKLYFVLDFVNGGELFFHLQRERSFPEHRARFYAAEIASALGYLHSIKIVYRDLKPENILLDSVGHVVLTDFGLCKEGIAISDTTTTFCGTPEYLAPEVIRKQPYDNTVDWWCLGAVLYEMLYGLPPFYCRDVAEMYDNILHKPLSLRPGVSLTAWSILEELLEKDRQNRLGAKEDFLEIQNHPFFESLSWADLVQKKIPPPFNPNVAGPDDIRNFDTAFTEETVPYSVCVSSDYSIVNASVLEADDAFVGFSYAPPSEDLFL
Procedure: as §1, §2, §3

SMILES | phosphorylation of PRAS40 (Thr246) and NDRG1 (Thr346) [1] | IC50 [2] [nM] | IC50 [3] [nM]
NC1(c2ccc(-c3nc4ccn5c(=O)[nH]nc5c4cc3-c3ccccc3)cc2)CCC1 [MK-2206] | inhibited | – | –
Nc1n[nH]c2nc(-c3ccc(NS(=O)(=O)c4cc(Cl)ccc4Cl)cc3)cnc12 [14h] | – | 84 | 4
